According to paper PMC8457330 (Journal of medicinal chemistry, 2021):

How the values were obtained:
SARS-CoV = conditions: read-out: SARS-CoV antiviral EC50; VeroE6 cells; cited from earlier work
SARS-CoV 3CLpro = SARS-CoV 3CLpro (Severe acute respiratory syndrome coronavirus, UniProt P0C6X7); experiment: biochemical
SARS-CoV-2 = experiment: Antiviral activity, quantitative VeroE6 cell-based assay with RNA-qPCR; conditions: VeroE6 cells, EC50 ratio versus compound 1
SARS-CoV-2 3CLpro = SARS-CoV-2 3CLpro (Severe acute respiratory syndrome coronavirus 2, UniProt P0DTD1); format: biochemical

| Structure (SMILES) | IC50 (SARS-CoV 3CLpro) | fold reduction in antiviral activity compared to 1 (SARS-CoV-2) | further results |
| --- | --- | --- | --- |
| O=C(Oc1cncc(Cl)c1)c1cccc2[nH]ccc12 [Compound 1, 5-chloropyridin-3-yl 1H-indole-4-carboxylate] | – | – | EC50 (SARS-CoV): 6900 nM |
| O=C(Oc1cncc(Cl)c1)c1cccc2c1CCN2 [Compound 2, 5-chloropyridin-3-yl indoline-4-carboxylate] | 190 nM | 5 fold | – |
| C=CCn1ccc2c(C(=O)Oc3cncc(Cl)c3)cccc21 [Compound 7d, 5-chloropyridin-3-yl 1-allyl-1H-indole-4-carboxylate] | – | ~5 fold | fold improvement in inhibitory potency over 1 (SARS-CoV-2 3CLpro; versus compound 1): over 5 fold |
| C=CCc1cn(CC=C)c2cccc(C(=O)Oc3cncc(Cl)c3)c12 [Compound 7e, 5-chloropyridin-3-yl 1,3-diallyl-1H-indole-4-carboxylate] | – | – | fold reduction in enzyme inhibitory activity (SARS-CoV-2 3CLpro; bis-allyl 7e versus 7d): 5 fold |
| O=C(Oc1cncc(Cl)c1)c1ccc2[nH]ccc2c1 [Compound 7a, 5-chloropyridin-3-yl 1H-indole-5-carboxylate] | 405 nM | – | – |
